Structures are written as SMILES.

The series in a line: Oral fluid to blood (OF/B) concentration ratio and plasma concentration. Conditions: human.

In general, Kp refers to the ratio of the level in a tissue or fluid to that in plasma or blood. Take `CNC(C)C(=O)c1ccc(C)cc1` (stereo not shown) [mephedrone, 4-methylmethcathinone]: the Kp runs as follows: (oral, 200 mg) 22.3; (po, 100 mg) 49.4; (po, 150 mg) 4.28; (po, 200 mg) 11.7.
